Patent US11407831B2, “Pharmaceutical composition administered in combination with substituted dihydropyrrolopyrazole compound and immunotherapeutic agent” (UBE INDUSTRIES, LTD., priority 2017, dated 2022)

How the values were obtained:
[1] = test system: Mouse melanoma cells (B16F10); assay: Mouse Melanoma (B16F10) Cell Growth Inhibition Test; format: cell-based; conditions: B16-F10, 72 h, 3 days culture, CellTiter-Glo (ATP)
Description: Mouse melanoma cells (B16F10) (Cell Resource Center for Biomedical Research, Institute of Development, Aging and Cancer, Tohoku University, Cat. No. TKG0348) were cultured in DMEM medium (REF. 11965-092 manufactured by GIBCO/Thermo Fisher Scientific Inc.) containing 10% FBS (REF. 10082-147 manufactured by GIBCO/Thermo Fisher Scientific Inc.), 1% penicillin/streptomycin/amphotericin B (REF. 15240-096 manufactured by GIBCO/Thermo Fisher Scientific Inc.), and 1 mM sodium pyruvate (REF. 11360-070 manufactured by GIBCO/Thermo Fisher Scientific Inc.) and inoculated at 0.5 to 2.0×10^3 cells/well to a 96-well plate. After overnight culture in a carbon dioxide incubator, culture was further performed for 3 days in a medium containing a solution of a test compound in DMSO (final DMSO concentration: 0.1%), and then, the amount of ATP was measured using CellTiter-Glo (manufactured by Promega Corp.).
The rate of inhibition of cell growth at each concentration was calculated from the test compound concentration and the amount of ATP, and the concentration of the test compound necessary for inhibiting 50% of cell growth (GI50 value) was calculated by using EXSUS (version 8.1.0, manufactured by CAC Croit Corp.).

[2] = test system: Mouse melanoma cells (B16F10) subcutaneously transplanted; assay: In Vivo Tumor Growth Inhibition Test in Mouse Melanoma Cell (B16F10)-Subcutaneously Transplanted Mouse; design: species or system C57BL/6 mice; conditions: day 7
Description: Mouse melanoma cells (B16F10) (Cell Resource Center for Biomedical Research, Institute of Development, Aging and Cancer, Tohoku University, Cat. No. TKG0348) were cultured in DMEM medium (REF. 11965-092 manufactured by GIBCO/Thermo Fisher Scientific Inc.) containing 10% FBS (REF. 10082-147 manufactured by GIBCO/Thermo Fisher Scientific Inc.), 1% penicillin/streptomycin/amphotericin B (REF. 15240-096 manufactured by GIBCO/Thermo Fisher Scientific Inc.), and 1 mM sodium pyruvate (REF. 11360-070 manufactured by GIBCO/Thermo Fisher Scientific Inc.) and adjusted to 1.0×10^7 cells/mL with PBS (REF. 10010-031 manufactured by GIBCO/Thermo Fisher Scientific Inc.). The prepared cell suspension was subcutaneously injected at 0.1 mL/mouse to the right abdomens of C57BL/6 mice (female, supplied by Japan SLC, Inc.). After rearing for a certain period, the long diameter (mm) and short diameter (mm) of tumor were measured with electronic calipers (manufactured by Mitsutoyo Corp., Cat. 500-712-10), and the tumor volume was calculated according to the following expression: Tumor volume (mm^3)=(Long diameter)×(Short diameter)×(Short diameter)×0.5
Individuals whose tumor volume was within the range of 50 to 200 mm^3 were selected and grouped such that the tumor volume was almost equivalent, then an anti-PD-1 antibody (manufactured by Bio X Cell) at 250 μg/mouse or Rat IgG2a (manufactured by Bio X Cell) at 250 μg/mouse was intraperitoneally administered, and further a test compound (25 mg/kg or 100 mg/kg) or only a solvent was orally administered to each group. The initial day of the start of administration was defined as day 0, and the anti-PD-1 antibody or Rat IgG2a were intraperitoneally administered on day 0 and day 3, and the test compound or only the solvent was orally administered once a day from day 0 to day 6. On day 7, the long diameter and short diameter of tumor were measured, and the tumor volume was calculated.

[3] = test compound oral (25 mg/kg or 100 mg/kg) once a day day 0 to 6 + Rat IgG2a 250 μg/mouse i.p. day 0 and 3, vs Rat IgG2a + solvent group
[4] = test compound oral (25 mg/kg or 100 mg/kg) once a day day 0 to 6 in combination with anti-PD-1 antibody 250 μg/mouse i.p. day 0 and 3

SMILES	GI50 [1] [nM]	Rate of inhibition of increase in tumor volume [2, 3]	Rate of inhibition of increase in tumor volume [2, 4]
Cc1cccc(Cl)c1NC(=O)N1Cc2c(NC(=O)C3([Si](C)(C)C)CCC3)n[nH]c2C1(C)C [II-215, N-(2-Chloro-6-methylphenyl)-6,6-dimethyl-3-[1-(trimethylsilyl)cyclobutanecarboxamido]-4,6-dihydropyrrolo[3,4-c]pyrazole-5(1H)-carboxamide]	≤ 2000	B (50% or more and less than 70%)	A (70% or more and less than 90%)
Cc1cc2ccc(F)c(NC(=O)N3Cc4c(NC(=O)C5([Si](C)(C)C)CCC5)n[nH]c4C3(C)C)c2o1 [II-1059, N-(6-Fluoro-2-methylbenzofuran-7-yl)-6,6-dimethyl-3-[1-(trimethylsilyl)cyclobutanecarboxamido]-4,6-dihydropyrrolo[3,4-c]pyrazole-5(1H)-carboxamide]	≤ 2000		
CC1(C)c2[nH]nc(NC(=O)C3([Si](C)(C)C)CCC3)c2CN1C(=O)Nc1c(F)ccc2cc(Cl)oc12 [II-1063, N-(2-Chloro-6-fluorobenzofuran-7-yl)-6,6-dimethyl-3-[1-(trimethylsilyl)cyclobutanecarboxamido]-4,6-dihydropyrrolo[3,4-c]pyrazole-5(1H)-carboxamide]	≤ 2000	D (10% or more and less than 30%)	B (50% or more and less than 70%)
CC1(C)c2[nH]nc(NC(=O)C3([Si](C)(C)C)CCC3)c2CN1C(=O)Nc1c(F)ccc2ccoc12 [II-1049, N-(6-Fluorobenzofuran-7-yl)-6,6-dimethyl-3-[1-(trimethylsilyl)cyclobutanecarboxamido]-4,6-dihydropyrrolo[3,4-c]pyrazole-5(1H)-carboxamide]	≤ 2000		
Cc1cccc(Br)c1NC(=O)N1Cc2c(NC(=O)C3([Si](C)(C)C)CCC3)n[nH]c2C1(C)C [II-299, N-(2-Bromo-6-methylphenyl)-6,6-dimethyl-3-[1-(trimethylsilyl)cyclobutanecarboxamido]-4,6-dihydropyrrolo[3,4-c]pyrazole-5(1H)-carboxamide]	≤ 2000		
CC1(C)c2[nH]nc(NC(=O)C3([Si](C)(C)C)CCC3)c2CN1C(=O)Nc1c(F)cccc1Cl [II-113, N-(2-Chloro-6-fluorophenyl)-6,6-dimethyl-3-[1-(trimethylsilyl)cyclobutanecarboxamido]-4,6-dihydropyrrolo[3,4-c]pyrazole-5(1H)-carboxamide]	≤ 2000		
Cc1ccccc1NC(=O)N1Cc2c(NC(=O)C3([Si](C)(C)C)CCC3)n[nH]c2C1(C)C [II-21, 6,6-Dimethyl-N-(o-tolyl)-3-[1-(trimethylsilyl)cyclobutanecarboxamido]-4,6-dihydropyrrolo[3,4-c]pyrazole-5(1H)-carboxamide]	≤ 2000		
Cc1ccc(C)c(NC(=O)N2Cc3c(NC(=O)C4([Si](C)(C)C)CCC4)n[nH]c3C2(C)C)c1 [II-379, N-(2,5-Dimethylphenyl)-6,6-dimethyl-3-[1-(trimethylsilyl)cyclobutanecarboxamido]-4,6-dihydropyrrolo[3,4-c]pyrazole-5(1H)-carboxamide]	≤ 2000	B (50% or more and less than 70%)	A (70% or more and less than 90%)
Cc1ccc(F)cc1NC(=O)N1Cc2c(NC(=O)C3([Si](C)(C)C)CCC3)n[nH]c2C1(C)C [II-361, N-(5-Fluoro-2-methylphenyl)-6,6-dimethyl-3-[1-(trimethylsilyl)cyclobutanecarboxamido]-4,6-dihydropyrrolo[3,4-c]pyrazole-5(1H)-carboxamide]	≤ 2000		
Cc1ccc(C)c(NC(=O)N2Cc3c(NC(=O)C4([Si](C)(C)C)CCC4)n[nH]c3C2(C)C)c1F [II-669, N-(2-Fluoro-3,6-dimethylphenyl)-6,6-dimethyl-3-[1-(trimethylsilyl)cyclobutanecarboxamido]-4,6-dihydropyrrolo[3,4-c]pyrazole-5(1H)-carboxamide]	≤ 2000		
